# Biological target: Disintegrin and metalloproteinase domain-containing protein 17 (Homo sapiens) (UniProt P78536)
# Assay: Inhibition of TACE in human THP1 cell lysate at 0.1 uM/L by spectrofluorimetric ELISA relative to control
# Format: cell-free
# Conditions: THP-1
# Chain of Disintegrin and metalloproteinase domain-containing protein 17 (Homo sapiens) (P78536 whole entry, the tested form may be a part): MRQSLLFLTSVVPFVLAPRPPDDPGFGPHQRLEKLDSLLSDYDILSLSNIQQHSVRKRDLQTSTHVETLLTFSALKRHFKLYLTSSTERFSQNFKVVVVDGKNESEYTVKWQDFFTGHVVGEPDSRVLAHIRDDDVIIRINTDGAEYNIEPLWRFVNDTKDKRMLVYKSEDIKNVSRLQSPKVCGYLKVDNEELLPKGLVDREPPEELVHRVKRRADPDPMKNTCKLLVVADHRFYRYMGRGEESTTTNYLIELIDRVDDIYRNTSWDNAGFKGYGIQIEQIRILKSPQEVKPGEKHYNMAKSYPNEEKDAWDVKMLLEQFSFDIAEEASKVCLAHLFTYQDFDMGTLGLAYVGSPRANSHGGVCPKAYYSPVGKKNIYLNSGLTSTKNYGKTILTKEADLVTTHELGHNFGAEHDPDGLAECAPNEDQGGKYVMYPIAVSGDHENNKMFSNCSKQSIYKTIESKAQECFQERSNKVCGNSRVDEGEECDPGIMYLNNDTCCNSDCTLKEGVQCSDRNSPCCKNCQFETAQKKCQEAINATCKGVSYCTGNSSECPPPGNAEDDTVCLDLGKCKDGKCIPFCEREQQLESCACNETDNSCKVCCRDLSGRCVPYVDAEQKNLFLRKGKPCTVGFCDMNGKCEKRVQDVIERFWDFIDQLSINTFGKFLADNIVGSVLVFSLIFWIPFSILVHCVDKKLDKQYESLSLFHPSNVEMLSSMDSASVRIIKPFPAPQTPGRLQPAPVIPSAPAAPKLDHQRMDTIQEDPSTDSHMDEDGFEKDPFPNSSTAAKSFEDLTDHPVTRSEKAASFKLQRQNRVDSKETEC
row,Structure (SMILES),inhibition [%]
1,CC(C(=O)O)N1CCCN(c2ccc(OCc3ccc(-c4ccccc4)cc3)cc2)C1=O (centres undefined),28
2,CC(C(=O)NO)N1CCN(c2cccc(OCc3ccccc3)c2)C1=O (centres undefined),39
3,CC(C(=O)NO)N1CCCN(c2ccc(OCc3ccccn3)cc2)C1=O (centres undefined),37
4,CC(C(=O)NO)N1CCCN(c2ccc(OCc3ccccc3)cc2)C1=O (centres undefined),28
5,CC(C(=O)NO)N1CCN(c2cccc(OCc3ccc([N+](=O)[O-])cc3)c2)C1=O (centres undefined),40
6,COc1ccc(COc2ccc(N3CCCN(C(C)C(=O)NO)C3=O)cc2)cc1 (centres undefined),18
7,COc1ccc(CSc2ccc(N3CCN(C(C)C(=O)NO)C3=O)cc2)cc1 (centres undefined),42
8,COc1ccc(COc2ccc(N3CCN(C(C)C(=O)NO)C3=O)cc2)cc1 (centres undefined),38
9,CC(C(=O)NO)N1CCN(c2ccc(OCc3ccccn3)cc2)C1=O (centres undefined),50
10,CC(C)C[C@H](CC(=O)NO)C(=O)N[C@@H](C)C(=O)N(c1cccc2ccccc12)[C@@H](C)C(=O)NCCN,28
11,COc1ccc(CSc2ccc(N3CCN(C(C)C(=O)O)C3=O)cc2)cc1 (centres undefined),40
12,CC(C(=O)NO)N1CCCN(c2ccc(OCc3cccc4ccccc34)cc2)C1=O (centres undefined),40

# More lines, now with the values ahead:
row,inhibition [%],Structure (SMILES)
1,30,CC(C(=O)O)N1CCN(c2ccc(OCc3cc(-c4ccccc4)nc4ccccc34)cc2)C1=O (centres undefined)
2,28,CC(C(=O)O)N1CCN(c2ccc(OCc3ccccn3)cc2)C1=O (centres undefined)
3,20,CC(C)Cc1cc(COc2ccc(N3CCCN(C(C)C(=O)O)C3=O)cc2)c2ccccc2n1 (centres undefined)
4,34,CCc1cc(COc2ccc(N3CCCN(C(C)C(=O)NO)C3=O)cc2)c2ccccc2n1 (centres undefined)
5,30,CC(C(=O)O)N1CCN(c2ccc(OCc3ccc(-c4ccccc4)cc3)cc2)C1=O (centres undefined)
6,35,CC(C(=O)O)N1CCCN(c2ccc(OCc3ccccn3)cc2)C1=O (centres undefined)
7,49,CCc1cc(COc2ccc(N3CCN(C(C)C(=O)O)C3=O)cc2)c2ccccc2n1 (centres undefined)
8,31,CC(C(=O)O)N1CCCN(c2ccc(OCc3cc(-c4ccccc4)nc4ccccc34)cc2)C1=O (centres undefined)
9,36,CC(C(=O)NO)N1CCN(c2ccc(OCc3cccc4ccccc34)cc2)C1=O (centres undefined)
10,62,CCc1cc(COc2ccc(N3CCN(C(C)C(=O)NO)C3=O)cc2)c2ccccc2n1 (centres undefined)
11,47,CC(C)Cc1cc(COc2ccc(N3CCN(C(C)C(=O)O)C3=O)cc2)c2ccccc2n1 (centres undefined)
12,60,CC(C)Cc1cc(COc2ccc(N3CCN(C(C)C(=O)NO)C3=O)cc2)c2ccccc2n1 (centres undefined)

# — ChEMBL document CHEMBL1136879, “Studies on novel 2-imidazolidinones and tetrahydropyrimidin-2(1H)-ones as potential TACE inhibitors: design, synthesis, molecular modeling, and preliminary biological evaluation” (Bioorg Med Chem, 2009)
